Measurements from patent US20090275570A1, “SUBSTITUTED HETEROCYCLES AND THEIR USE AS CHK1, PDK1 AND PAK INHIBITORS” (ASTRAZENECA AB, priority 2005, published 2009).
Like-named read-outs stand apart in the source and are kept apart here.

Assays:
Format in all cases: biochemical
CHK1 kinase = biological target: T1, CHK1 kinase (Homo sapiens, UniProt O14757); test: Checkpoint Kinase 1 Assay (SPA)
T1 construct: The kinase domain is expressed in baculovirus and purified by the GST tag; GST; made in house; host or cells: baculovirus system (insect cells implied)
T1 sequence (O14757 9-265 limits assumed): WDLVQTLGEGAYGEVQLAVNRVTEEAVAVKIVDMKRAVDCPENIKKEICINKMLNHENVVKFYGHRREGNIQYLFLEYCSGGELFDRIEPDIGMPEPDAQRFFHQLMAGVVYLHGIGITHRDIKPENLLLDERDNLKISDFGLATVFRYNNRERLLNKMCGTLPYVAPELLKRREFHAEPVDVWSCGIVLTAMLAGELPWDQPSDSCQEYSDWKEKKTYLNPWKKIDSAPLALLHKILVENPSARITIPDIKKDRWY
Protocol: Checkpoint Kinase 1 Assay: This in vitro assay measures the inhibition of CHK1 kinase by compounds. The kinase domain is expressed in baculovirus and purified by the GST tag. Purified protein and biotinylated peptide substrate (Cdc25C) is then used in a 384 well automated Scintillation Proximity Assay (SPA). Specifically, peptide, enzyme and reaction buffer are mixed and aliquoted into a 384 well plate containing dilution series of compounds and controls. Cold and hot ATP are then added to initiate the reaction. After 2 hours, a SPA bead slurry, […] and EDTA are added to stop the reaction and capture the biotinylated peptide. Plates are then counted on a Topcount. Data is analyzed and IC50s determined for individual compounds.

Pak1 = biological target: T2, Pak1 (Homo sapiens, UniProt Q13153); test: In Vitro Pak1 Enzyme Assay (SPA); details: read-out: IC50 value in the Pak 1 enzyme assay
T2 construct: The full-length Pak1 protein is expressed in E. coli as a GST fusion; GST; made in house; host or cells: E. coli
T2 sequence (Q13153 whole entry, the tested form may be a part): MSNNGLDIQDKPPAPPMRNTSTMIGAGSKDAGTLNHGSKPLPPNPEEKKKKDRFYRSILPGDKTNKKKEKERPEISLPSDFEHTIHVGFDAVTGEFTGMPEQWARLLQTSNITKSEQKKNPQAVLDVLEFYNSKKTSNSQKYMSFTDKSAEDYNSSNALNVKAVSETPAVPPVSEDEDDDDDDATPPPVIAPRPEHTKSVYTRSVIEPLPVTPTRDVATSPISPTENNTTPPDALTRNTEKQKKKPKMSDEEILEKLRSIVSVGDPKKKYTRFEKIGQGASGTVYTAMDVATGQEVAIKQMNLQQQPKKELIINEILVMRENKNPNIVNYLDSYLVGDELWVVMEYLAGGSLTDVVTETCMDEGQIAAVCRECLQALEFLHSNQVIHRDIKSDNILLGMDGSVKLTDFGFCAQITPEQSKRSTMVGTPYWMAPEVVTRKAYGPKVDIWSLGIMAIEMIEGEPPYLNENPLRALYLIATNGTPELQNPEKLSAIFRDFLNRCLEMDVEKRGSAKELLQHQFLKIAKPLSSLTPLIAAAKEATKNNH
Protocol: (§1) The assay used Scintillation Proximity Assay (SPA) technology (Antonsson et al., Analytical Biochemistry, 1999, 267: 294-299) to determine the ability of test compounds to inhibit phosphorylation by recombinant Pak1. The full-length Pak1 protein is expressed in E. coli as a GST fusion and purified using the GST tag using standard purification techniques.
(§2) Test compounds were prepared as 10 mM stock solutions in DMSO and diluted into water as required to give a range of final assay concentrations. Aliquots (5 μl) of each compound dilution were placed into a well of a Matrix 384-well flat bottom white polystyrene plate (Catalogue No. 4316). […]
(§3) Each reaction was stopped and the biotinylated peptide captured by the addition of 30 Ξl of a mixture of Streptavidin coated PVT SPA bead slurry (Amersham Biosciences, Catalogue No. RPQO205; 250 μg/well) in 50 mM Tris-HCl pH7.5 buffer containing 0.05% sodium azide followed by the addition of 30 μl of 2.83M Caesium chloride (final assay concentration of 1M). Plates are then left for 2 hours on the bench before being counted on a TopCount. […]
Pak1 enzyme inhibition for a given test compound was expressed as an IC50 value.

Pak4 = biological target: T3, Pak4 (Homo sapiens, UniProt O96013); test: In Vitro Pak4 Enzyme Assay (SPA); details: read-out: IC50 value in the Pak 4 enzyme assay
T3 construct: The kinase domain of Pak4 (amino acids 291 to 591) is expressed in E. coli as a GST fusion; GST; made in house; host or cells: E. coli
T3 sequence (O96013 291-591): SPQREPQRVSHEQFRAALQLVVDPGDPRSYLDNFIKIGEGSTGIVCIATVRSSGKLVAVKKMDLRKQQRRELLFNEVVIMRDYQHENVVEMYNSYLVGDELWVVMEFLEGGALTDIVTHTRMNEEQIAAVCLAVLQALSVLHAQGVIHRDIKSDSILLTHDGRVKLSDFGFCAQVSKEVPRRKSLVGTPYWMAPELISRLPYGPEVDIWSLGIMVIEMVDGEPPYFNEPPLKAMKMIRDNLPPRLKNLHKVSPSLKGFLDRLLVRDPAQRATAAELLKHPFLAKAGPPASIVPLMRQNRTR
Protocol: as §1, with “Pak4.” for “Pak1.”, “kinase domain of Pak4 (amino acids 291 to 591)” for “full-length Pak1 protein”
as §2
as §3, with “μl” for “Ξl”, “RPQ0205;” for “RPQO205;”
Pak4 enzyme inhibition for a given test compound was expressed as an IC50 value. […]

PDK1 = biological target: T4, PDK1 (Homo sapiens, UniProt O15530); test: PDK1 Enzyme Assay (Alphascreen)
T4 construct: 6His; made in house; host or cells: insect cells
T4 sequence (O15530 1-556): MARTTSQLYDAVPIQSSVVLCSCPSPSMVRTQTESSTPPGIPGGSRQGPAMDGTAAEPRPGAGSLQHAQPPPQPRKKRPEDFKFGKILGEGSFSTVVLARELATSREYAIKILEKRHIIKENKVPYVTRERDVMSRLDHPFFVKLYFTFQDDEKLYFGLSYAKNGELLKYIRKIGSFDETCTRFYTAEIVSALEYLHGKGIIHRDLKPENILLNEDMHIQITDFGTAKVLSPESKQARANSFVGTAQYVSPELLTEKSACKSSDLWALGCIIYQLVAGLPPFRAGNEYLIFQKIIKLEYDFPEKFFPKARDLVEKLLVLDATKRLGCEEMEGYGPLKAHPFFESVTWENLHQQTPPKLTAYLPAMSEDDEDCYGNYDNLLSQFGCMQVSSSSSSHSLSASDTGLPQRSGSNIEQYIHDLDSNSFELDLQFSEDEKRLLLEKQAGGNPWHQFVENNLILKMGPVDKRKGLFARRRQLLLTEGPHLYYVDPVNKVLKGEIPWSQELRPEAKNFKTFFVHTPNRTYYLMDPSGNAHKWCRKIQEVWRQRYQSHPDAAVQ
Protocol: The assay utilised Alphascreen technology (Ullman, E F, et al. Proc. Natl. Acad. Sci. USA, Vol. 91, pp. 5426-5430, 1994) to measure the ability of compounds to inhibit PDK1 enzyme activity. 6H is tagged PDK1 enzyme was expressed in insect cells and purified using NiNTA beads and conventional protein purification methodology.
Test compounds were prepared as 10 mM stock solutions in DMSO and diluted into water as required to give a range of final assay concentrations. 2 μl aliquots of compounds were dispensed into Greiner Bio-One low volume 384 well plates (Catalogue no. 784075). For the activity assay, to each well was added 5 μl of a mixture of 48 nM native peptide (Biotin-Ahx-[…]NH2, Bachem UK Ltd) and 12 μM adenosine triphosphate (ATP) in reaction buffer comprising Tris-HCl pH7.4 (60 mM), magnesium acetate (12 mM), EGTA (120 μM), DTT (1.2 mM) and bovine serum albumin (0.12 mg/ml). […]
Each reaction was stopped by addition of 5 μl of a solution containing Tris-HCl pH7.4 (50 mM), bovine serum albumin (1 mg/ml), EDTA (90 mM), anti-phospho Akt T308 antibody, R&D Systems, Catalogue no. […] Plates were then sealed and incubated overnight in low light conditions before being read on an Envision plate reader (Perkin Elmer). […]

Cc1cc2c(N[C@H]3CCCNC3)ncc(C(N)=O)c2s1 [Example 157, 2-methyl-4-[(3S)-piperidin-3-ylamino]thieno[3,2-c]pyridine-7-carboxamide]
IC50 (CHK1 kinase): 150 nM

NCCNc1ncc(C(N)=O)c2sc(-c3ccccc3)cc12 [Example 16, 4-[(2-aminoethyl)amino]-2-phenylthieno[3,2-c]pyridine-7-carboxamide]
IC50 (CHK1 kinase; read-out: IC50 value in the Checkpoint Kinase 1 assay): 550 nM

NC(=O)c1cnc(N[C@H]2CCCNC2)c2cc(-c3ccc(Cl)cc3)sc12 [Example 14, 2-(4-chlorophenyl)-4-[(3S)-piperidin-3-ylamino]thieno[3,2-c]pyridine-7-carboxamide]
IC50 (Pak1): 600 nM
IC50 (Pak4): 100 nM
IC50 (PDK1): 160 nM

NC(=O)c1cnc(N[C@H]2CCCNC2)c2cc(-c3cc(F)cc(F)c3)sc12 [Example 10, 2-(3,5-difluorophenyl)-4-[(3S)-piperidin-3-ylamino]thieno[3,2-c]pyridine-7-carboxamide]
IC50 (Pak1): 730 nM
IC50 (Pak4): 140 nM
IC50 (PDK1): 350 nM
